≈ marks a conversion by molar mass, not a printed value. Like-named read-outs stand apart in the source and are kept apart here.

Here are results for seven molecules from PMC6836419, “In vitro and in silico anti-dengue activity of compounds obtained from Psidium guajava through bioprospecting” (BMC Complementary and Alternative Medicine, 2019).

One series relates to DENV-2. As to conditions: cited from earlier work.
A short description of series [1]: MTT cytotoxicity (CC50) in VERO cells. As to conditions: African green monkey (Cercopithecus aethiops). It counts as cell-based. As for the experimental part:
The CC50 was determined via the 3-(4,5-dimethyl-2-thiazolyl)-2,5-diphenyl-2H-tetrazolium bromide) (MTT, Sigma-Aldrich) method. For this, 2.5 × 10^4 VERO cells were seeded in 96-well plates for 24 h. […] After the incubation period, an MTT solution (0.5 mg/mL) was added to the cultures, which were then incubated for an additional 3 h at 37 °C. Finally, dimethyl sulfoxide was added, and the absorbance was read at 450 nm in a Bio-Rad Benchmark® microplate reader. Cultures without extract, fractions, or compounds were processed as positive controls for viability. […] Each experimental condition was tested in triplicate in two independent experiments (n = 6).
To determine the CC50 and EC50, a regression analysis was performed with Probit Software. The SI of each molecule was determined from the relationship between the CC50 and EC50, using the formula SI = CC50/EC50. To compare the number of infectious viral particles released between the cells treated with each fraction or compound (for both the pre- and post-treatment strategies) and the untreated cells, Student’s t-test was used. […] Each experimental condition was tested in triplicate in two independent experiments (n = 6) to guaranty the statistical analysis and the figures show the average of those experiments.

Series [2] has as its system DENV-2/NG. In words: EC50 determination: VERO cells infected with DENV-2/NG in the presence of treatment, multiwell plate focus assay. It counts as cell-based. As to conditions: for EC50: Dengue virus, DENV2, Vero, read-out: Effective concentration 50% (EC50); for Selectivity index (SI): SI = CC50/EC50, VERO cells infected with DENV-2/NG. As for the experimental part: The SI of each ethanolic extract, fraction, or compound was calculated from the relationship between the cytotoxic concentration 50% (CC50) and effective concentration 50% (EC50). The CC50 was determined via the 3-(4,5-dimethyl-2-thiazolyl)-2,5-diphenyl-2H-tetrazolium bromide) (MTT, Sigma-Aldrich) method. For this, 2.5 × 10^4 VERO cells were seeded in 96-well plates for 24 h. Subsequently, serial dilutions of the ethanolic extracts (7.8 μg/mL to 1000 μg/mL), fractions (6.25 to 400 μg/mL), and characterized compounds (6.25 to 400 μg/mL) were performed and incubated with the cells for 48 h. After the incubation period, an MTT solution (0.5 mg/mL) was added to the cultures, which were then incubated for an additional 3 h at 37 °C. Finally, dimethyl sulfoxide was added, and the absorbance was read at 450 nm in a Bio-Rad Benchmark® microplate reader. Cultures without extract, fractions, or compounds were processed as positive controls for viability. The CC50 was calculated as the extract concentration that reduced cell viability by 50% using regression analysis (Probit software). Each experimental condition was tested in triplicate in two independent experiments (n = 6). To calculate the EC50, 2.5 × 10^4 VERO cells were seeded in 96-well plates for 24 h. At 24 h, serial dilutions of each ethanolic extract (7.8 μg/mL to 1000 μg/mL), fraction (6.25 to 400 μg/mL), and characterized compound (6.25 to 400 μg/mL) were mixed with the DENV-2/NG strain (at a multiplicity of infection (MOI = 1) and added to the cell monolayers for 2 h. At 2 h post-inoculation (hpi), the mixtures were removed, and the same serial dilutions of the extracts, fractions, or compounds were added again and incubated for 24 h. Finally, the supernatants were collected and stored at − 70 °C until performing the multiwell plate focus assay.
(§1) A total of 2.5 × 10^4 cells/well were seeded in 96-well plates. The cells were inoculated the following day with serial dilutions (10^− 1 to 10^− 6) of the supernatants from the EC50 experiments for 2 h. Next, the inoculum were removed, and 1.5% carboxymethylcellulose (Sigma-Aldrich) prepared in DMEM (Gibco®) supplemented with 2% FCS (Gibco®) was added, followed by incubation at 37 °C in a 5% CO 2 atmosphere. On the third day, the cells were fixed with a methanol-acetone (1:1) solution for 10 min, washed three times with PBS, and permeabilized with 0.1% Triton X-100 for 30 min, after which nonspecific site blocking was performed with 10% FBS in PBS. Then, DENV anti-envelope monoclonal antibody (mAb) was diluted 1:500 with PBS containing 10% FCS (Gibco®) was added, followed by incubation for 1 h at 37 °C. After washing with PBS, the plates were incubated for 30 min with an anti-mouse IgG secondary antibody conjugated to peroxidase. Finally, the reactions were stained with 3-amino-9-ethylcarbazole (AEC, Sigma-Aldrich), and the number of foci in each well were counted.
To determine the CC50 and EC50, a regression analysis was performed with Probit Software. The SI of each molecule was determined from the relationship between the CC50 and EC50, using the formula SI = CC50/EC50. To compare the number of infectious viral particles released between the cells treated with each fraction or compound (for both the pre- and post-treatment strategies) and the untreated cells, Student’s t-test was used. All statistical analyses were performed using the Prism® 7.01 for Windows™ package (GraphPad Software, San Diego, CA), considering differences statistically significant at p < 0.05 in all cases. Each experimental condition was tested in triplicate in two independent experiments (n = 6) to guaranty the statistical analysis and the figures show the average of those experiments.

Series [3] has as its system DENV-2/NG. In words: Antiviral effect on virus cell entry (pre-treatment strategy). It counts as cell-based. As to conditions: for inhibition at 50 µg/mL: Dengue virus, DENV2, Vero. The protocol: as §1
A total of 2.5 × 10^4 VERO cells were seeded in 24-well plates for 24 h, and the fractions (100 μg/mL) or characterized compounds (50 μg/mL) were then added and incubated with the cells for an additional 24 h (pre-treatment strategy). Subsequently, treatment was withdrawn, and a viral inoculum (DENV-2/NG at an MOI = 1) was added and incubated for 2 h. Subsequently, the virus was removed, and fresh medium was added for an additional 48 h, after which the supernatants were collected and stored at − 70 °C until further processing via the multiwell plate focus assay. For each fraction and compound, two independent experiments were performed each with two replicates (n = 4). Heparin (Sigma-Aldrich) served as the positive control for viral inhibition.
(§2) Fig. 4 Antiviral effects of the compounds derived from the Pg- YP-I-22C fraction on some steps of the DENV replication cycle. The cells were treated with the compounds for 48 h and then infected with DENV (MOI = 1). This infection strategy (pre-treatment) is represented by the dark bars. In addition, independent cell cultures were infected with DENV (MOI = 1) and then treated with the compounds (post-treatment strategy; indicated by clear bars). The error bars correspond to the SEM. The asterisks indicate cases with statistically significant differences (Student’s t-test; p < 0.05) in relation to the control without treatment

In series [4] the test system is DENV-2/NG. In words: Antiviral effect after virus cell entry (post-treatment strategy). It counts as cell-based. As to conditions: for inhibition at 50 µg/mL: Dengue virus, DENV2, Vero, 48 h; for Viral inhibition percentage, post-treatment strategy: VERO cells infected with DENV-2/NG MOI = 1, then compounds 50 μg/mL for 48 h. The protocol:
as §1
A total of 2.5 × 10^4 VERO cells were seeded in 24-well plates for 24 h, and a viral inoculum (DENV-2/NG at an MOI = 1) was then added and incubated for 2 h. Subsequently, the inoculum was removed, and the fractions (100 μg/mL) or characterized compounds (50 μg/mL) were added and incubated with the cells for an additional 48 h (post-treatment strategy). Next, the supernatants were collected and stored at − 70 °C until further processing via the multiwell plate focus assay. For each fraction or compound, two independent experiments were performed each with two replicates (n = 4). Suramin served as the positive control for viral inhibition.
as §2

The mark [5] stands for this setting: VERO cells, 48 h incubation, MTT, unit given, not in Table 1, read-out: Cytotoxic concentration 50% (CC50).
The mark [6] stands for this setting: read-out: Viral inhibition percentage, pre-treatment strategy, compounds 50 μg/mL added to VERO cells before infection with DENV-2/NG MOI = 1, plate focus assay.
[7] abbreviates: read-out: Viral inhibition percentage, post-treatment strategy, VERO cells infected with DENV-2/NG MOI = 1, then compounds 50 μg/mL for 48 h, plate focus assay.

With `CC[C@H]1CC2CN3CCc4c([nH]c5ccc(OC)cc45)[C@](C(=O)OC)(C2)[C@H]13` (stereo in doubt) [voacangine], in the series on DENV-2, the “Inhibition of infection in vitro by plant-derived compounds” value is listed as “greater than 50%”.

Regarding `Oc1cc(O)c2c(c1)OC(c1ccc(O)c(O)c1)C(O)C2` (stereo not drawn) [Catechin, catechin], the CC50 at 48 h in series [1] (setting [5]) was 833 µg/mL (≈ 2870 µM). In the series on DENV-2/NG [2], the EC50 stood at 33.7 µg/mL and the “Selectivity index (SI)” value is reported as 24.8. The inhibition at 50 µg/mL in the series on DENV-2/NG [3] (setting [6]) stood at 100%. The “Viral inhibition percentage, pre-treatment strategy” value in the series with DENV-2/NG [3] (compounds 50 μg/mL added to VERO cells before infection with DENV-2/NG MOI = 1, plate focus assay) is on record as “greater than 90%”. In addition, in the series on DENV-2/NG [4] (setting [7]), the inhibition at 50 µg/mL came to 91.8%. In addition, the “Viral inhibition percentage, post-treatment strategy” value in the series with DENV-2/NG [4] (plate focus assay) is “greater than 90%”.

With `O=C(O)c1cc(O)c(O)c(O)c1` [Gallic Acid, gallic acid], the CC50 at 48 h in series [1] (setting [5]) was 543 µg/mL (≈ 3190 µM). Also, in the series on DENV-2/NG [2], the EC50 turned out to be 25.8 µg/mL and the “Selectivity index (SI)” value stood at 21.1. The inhibition at 50 µg/mL in the series on DENV-2/NG [3] (setting [6]) came to 52.6%. The inhibition at 50 µg/mL in the series on DENV-2/NG [4] (setting [7]) amounted to 67.3%.

With `C[C@@H]1O[C@@H](O[C@H]2[C@H](Oc3cc(O)c4c(c3)O[C@H](c3ccc(O)cc3)CC4=O)O[C@H](CO)[C@@H](O)[C@@H]2O)[C@H](O)[C@H](O)[C@H]1O` [Naringin, naringin], in series [1] (setting [5]), the CC50 at 48 h amounted to 647 µg/mL (≈ 1110 µM). Further, in the series on DENV-2/NG [2], the EC50 turned out to be 47.9 µg/mL and the “Selectivity index (SI)” value was determined as 13.5. The inhibition at 50 µg/mL with DENV-2/NG [4] (setting [7]) was found to be 64.5%.

`O=c1c(O)c(-c2ccc(O)c(O)c2)oc2cc(O)cc(O)c12` [Quercetin, quercetin] returned a CC50 at 48 h in series [1] of 660 µg/mL (≈ 2180 µM). Further, in the series on DENV-2/NG [2], the EC50 stood at 19.2 µg/mL and the “Selectivity index (SI)” value stood at 34.3. In addition, in the series with DENV-2/NG [3] (read-out: Viral inhibition percentage, pre-treatment strategy), the inhibition at 50 µg/mL amounted to 50%. For the same molecule, the inhibition at 50 µg/mL in the series on DENV-2/NG [4] (read-out: Viral inhibition percentage, post-treatment strategy) was 100%.

Consider `Cc1ccc(C(=O)Nc2ccc(S(=O)(=O)O)c3cc(S(=O)(=O)O)cc(S(=O)(=O)O)c23)cc1NC(=O)c1cccc(NC(=O)Nc2cccc(C(=O)Nc3cc(C(=O)Nc4ccc(S(=O)(=O)O)c5cc(S(=O)(=O)O)cc(S(=O)(=O)O)c45)ccc3C)c2)c1` [SURAMIN, suramin, reference compound], for which the “Viral inhibition percentage, post-treatment strategy” value in the series on DENV-2/NG [4] (plate focus assay) is “better inhibition”.

Regarding `C=C(C)[C@@H]1CC[C@]2(C)CC[C@]3(C)[C@H](CC[C@@H]4[C@@]5(C)CC[C@H](O)C(C)(C)[C@@H]5CC[C@]43C)[C@@H]12` [lupeol], the “Inhibition of infection in vitro by plant-derived compounds” value in the series on DENV-2 is listed as “greater than 50%”.
